# Results from article PMC11611271, “Rapid prediction of key residues for foldability by machine learning model enables the design of highly functional libraries with hyperstable constrained peptide scaffolds” (PLOS Computational Biology, 2024).
# Where a SMILES comes first, the peptide text is derived from it. Bridges are numbered along the chain shown (N, C = ends). Where no end group is shown, it is not given here.
# Tests used:
# [1] = test system: HtrA1; assay: phage spot ELISA on HtrA1; format: binding; conditions: Fig 9A; for ELISA s/n: Spot ELISA signal/noise; for ELISA signal: Spot ELISA
# Excerpt: To determine the performance of the libraries for ligand discovery we chose a panel of eight protein targets, which have no structural homology and a wide mass range (Fig 7C). We screened these eight targets with solution panning strategy and two additional plate panning for CD8α/β and CD28, thus ten panning campaigns in total. We consider clones showing spot phage ELISA signal > 0.3 and signal/noise ratio > 2 as positive hits. […] We also obtained the NGS data for these screening and the ranking of clones for their enrichment along the rounds of screening was analyzed and considered the top-ranking clones as potential hits. Based on their sequence diversity we selected 16 potential hits spanning five protein targets for peptide synthesis in their linear form. Seven of these are hits with positive phage ELISA signal and nine were selected based on NGS ranking without spot ELISA available. Subsequently, we conducted in vitro folding experiments on these peptides in various buffers.
# (§1) The 5ji4 libraries were constructed following the Kunkel mutagenesis method and the solution panning protocol was followed as previously described. After four to five rounds of binding selection, while eluted pool was subjected to NGS analysis, individual phage clones were also picked and analyzed with phage spot ELISA. Positive clones were subjected to SANGER sequencing.
# Among these five hits, A7, which is the SANGER hit, was picked for affinity maturation. Following the same strategy, one soft- and one hard-randomization library was designed targeting the 5JI4 variable regions 1 and 2, respectively. Two libraries were each panned as previously described. Both phage spot ELISA coupled with SANGER sequencing and NGS analysis were applied after affinity maturation.
# [2] = target: T1, human full-length HtrA1 (Homo sapiens, UniProt Q92743); assay: HtrA1 enzymatic assay; format: biochemical
# T1 construct: we used human full-length HtrA1 (HtrA1), which was expressed in Trichoplusia ni cells; made in house; host or cells: Trichoplusia ni cells
# Method: For enzymatic assays we used human full-length HtrA1 (HtrA1), which was expressed in Trichoplusia ni cells and purified as described. Enzyme assays with the fluorescence-quenched synthetic substrate Mca-[…](Dnp)KK (H2-OPT) were carried out essentially as described. […] A 10 mM stock solution of H2-OPT in DMSO was diluted with water, prewarmed at 37°C and then added to the HCP-enzyme mixtures. The final concentrations in the reaction mixtures were: 1 nM HtrA1, 5 μM H2-OPT, 0.1% DMSO and varied concentrations of HCP. Substrate cleavage was measured at 37°C on a SPECTRAmax M5 microplate reader (Molecular Devices) and the initial rates of cleavage determined. The IC50 values were determined by fitting the data to the 4 parameter sigmoid function.
# [3] = target: CD28-Fc (Homo sapiens, UniProt P10747); assay: SPR binding to CD28-Fc; design: purchased R&D 342-CD-200; conditions: folded synthetic peptide; Biacore S200, 25°C, HBS-EP w. 5% DMSO, single-cycle kinetics; kinetic fitting (values not marked *); N.B. = no binding
# Method: Peptide synthesis was done by CSBio (Menlo Park, CA). The linear peptides were synthesized as free N- and C- terminus. For the small-scale in vitro folding test, linear peptides were dissolved in 100% DMSO as 10 mg/ml stock, then 1/20 diluted into folding buffers. Five different buffer conditions were tested: [1] 0.1 M NH4HCO3 pH 9.0, 2 mM reduced glutathione, 0.5 mM oxidized glutathione, and 9% DMSO; [2] 0.1 M NH4HCO3 pH 8.0, 1 mM reduced glutathione, and 55% DMSO; [3] dI-water w. 5% DMSO; [4] 1X PBS pH 7.4 w. 10% DMSO; and [5] 1X PBS pH 7.4 w. 50% DMSO. Refolding was promoted by incubation at R.T. with gentle rotation and monitored by LC-MS for disulfide bond formation. […] Therefore, buffer condition was used as a universal refolding buffer for all HCP peptides. After refolding, peptides with three disulfide bonds were purified by HPLC according to standard procedure and subjected to SPR measurements.
# All binding experiments were performed using a Biacore S200 instrument (GE Healthcare) at 25°C at a flow rate of 30 μl/min in HBS-EP buffer (Cytiva, #BR100188) w. 5% DMSO. The kinetics and affinity measurements were carried out using single-cycle kinetics (SCK) and referenced by subtracting the signal from the blank flow cell. […]
# [4] = test system: CD8α/β; assay: phage spot ELISA on CD8α/β; format: binding; conditions: for S/N: phage spot ELISA signal/noise; for ELISA: phage spot ELISA signal
# Excerpt: To determine the performance of the libraries for ligand discovery we chose a panel of eight protein targets, which have no structural homology and a wide mass range (Fig 7C). We screened these eight targets with solution panning strategy and two additional plate panning for CD8α/β and CD28, thus ten panning campaigns in total. We consider clones showing spot phage ELISA signal > 0.3 and signal/noise ratio > 2 as positive hits. At least one binding hit was discovered for nine out of the ten panning campaigns, surpassing the success rate of the best DCP scaffolds reported previously. We also obtained the NGS data for these screening and the ranking of clones for their enrichment along the rounds of screening was analyzed and considered the top-ranking clones as potential hits. Based on their sequence diversity we selected 16 potential hits spanning five protein targets for peptide synthesis in their linear form. Seven of these are hits with positive phage ELISA signal and nine were selected based on NGS ranking without spot ELISA available. Subsequently, we conducted in vitro folding experiments on these peptides in various buffers. We observed a strong propensity for spontaneous folding regardless of the buffer condition. All HCP hits tested successfully folded into three-disulfide-containing product within two days in a universal buffer system (PBS, pH 7.4, 50% DMSO) without the need for a redox pair, as shown in Fig 8A. The binding of these folded peptides to their respective target proteins was confirmed using SPR (Table 4 and S1 Data) and binding kinetics are exemplified by the high-affinity peptide 5ji4-CRD7-2 (see Fig 8B). Among seven selected ELISA-positive hits, all of them were successfully synthesized and in vitro folded with three disulfide bonds and five were proven to be validated binders by SPR (Table 4). Nine peptides selected from the NGS ranking were synthesized and folded with the expected number of disulfide bonds and five of them bound to their target with affinities in the μM range as determined by SPR (Table 4). In general, binding affinities for these SPR-validated initial hits are weak, with Kd values in the micromolar range and fast on- and off-rates. There are two exceptions with binding affinities in the nanomolar range.
# as §1
# [5] = target: T2, CD8α-Fc (UniProt P01732 22-182); assay: SPR; Biacore S200, Fc-fusion target on Sensor Chip Protein A, peptide flowed, single-cycle kinetics, three-fold dilution series from approximately 100 μM, 25°C, 30 μl/min, HBS-EP with 5% DMSO; 1:1 binding (kinetic) model, or no binding seen; conditions: both partners purified
# T2 construct: CD8 alpha chain, bought as Fc fusion; captured on a Protein A sensor chip by its Fc; source: bought: R&D, #AVI10927
# [6] = target: T2, CD8α-Fc; assay: SPR; Biacore S200, Fc-fusion target on Sensor Chip Protein A, peptide flowed, single-cycle kinetics, three-fold dilution series from approximately 100 μM, 25°C, 30 μl/min, HBS-EP with 5% DMSO; steady-state equilibrium model; conditions: both partners purified
# [7] = target: VEGF_(8-109) (UniProt P15692); assay: ELISA; phage spot ELISA of individual phage clones after panning; clones with signal > 0.3 and signal/noise ratio > 2 counted as positive hits
# [8] = target: VEGF_(8-109) (UniProt P15692); assay: SPR; Biacore S200, target on Series S Sensor Chip SA, peptide flowed, single-cycle kinetics, three-fold dilution series from approximately 100 μM, 25°C, 30 μl/min, HBS-EP with 5% DMSO; 1:1 binding (kinetic) model
# [9] = S3 Table sheet CD8αβ-1 (panning campaign 1)
# [10] = S3 Table sheet CD8αβ-2 (panning campaign 2)
# T2 sequence (P01732 22-182): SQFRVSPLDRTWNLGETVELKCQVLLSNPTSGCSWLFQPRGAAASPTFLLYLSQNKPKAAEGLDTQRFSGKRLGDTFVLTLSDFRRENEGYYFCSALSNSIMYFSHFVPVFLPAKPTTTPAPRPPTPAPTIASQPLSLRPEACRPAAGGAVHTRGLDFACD
# T1 sequence (Q92743 23-480): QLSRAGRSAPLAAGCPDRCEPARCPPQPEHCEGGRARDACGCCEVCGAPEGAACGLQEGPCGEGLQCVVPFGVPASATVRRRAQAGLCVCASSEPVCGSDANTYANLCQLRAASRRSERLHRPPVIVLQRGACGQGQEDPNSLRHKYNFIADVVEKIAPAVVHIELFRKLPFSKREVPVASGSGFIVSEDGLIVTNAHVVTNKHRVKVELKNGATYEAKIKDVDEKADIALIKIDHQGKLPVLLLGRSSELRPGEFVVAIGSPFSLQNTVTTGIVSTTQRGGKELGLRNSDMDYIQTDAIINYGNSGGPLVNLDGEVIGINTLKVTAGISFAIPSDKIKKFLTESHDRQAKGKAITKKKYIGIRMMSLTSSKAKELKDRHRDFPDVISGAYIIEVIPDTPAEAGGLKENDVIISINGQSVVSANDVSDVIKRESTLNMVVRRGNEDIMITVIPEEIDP
# Sequence of CD28-Fc (P10747 19-152 limits assumed): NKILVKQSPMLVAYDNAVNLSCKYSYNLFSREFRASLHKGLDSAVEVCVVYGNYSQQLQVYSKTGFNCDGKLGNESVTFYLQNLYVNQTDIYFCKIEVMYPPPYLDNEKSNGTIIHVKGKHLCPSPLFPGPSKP
molecule,measurement,setting,value
"CC[C@H](C)[C@@H]1NC(=O)[C@H]([C@@H](C)O)NC(=O)[C@@H]2CSSC[C@H](NC(=O)[C@H](CCC(=O)O)NC(=O)[C@H](C)NC(=O)[C@H](CO)NC(=O)[C@H](CO)NC(=O)[C@H]([C@@H](C)O)NC(=O)[C@H](CC(C)C)NC(=O)[C@H](Cc3ccccc3)NC(=O)[C@H](Cc3c[nH]cn3)NC(=O)[C@H](Cc3c[nH]c4ccccc34)NC(=O)CNC(=O)[C@H](CCCNC(=N)N)NC(=O)[C@H](CC(C)C)NC1=O)C(=O)N[C@@H](CCC(=O)O)C(=O)N[C@@H](CCCNC(=N)N)C(=O)N[C@@H](CC(C)C)C(=O)N[C@H]1CSSC[C@H](NC(=O)[C@H]([C@@H](C)O)NC(=O)[C@H](CCCNC(=N)N)NC(=O)[C@H](CC(C)C)NC(=O)CNC(=O)[C@H](CC(C)C)NC(=O)[C@H](CCCNC(=N)N)NC(=O)[C@H](CC(=O)O)NC1=O)C(=O)N[C@@H](CCCNC(=N)N)C(=O)N[C@@H](C(C)C)C(=O)N[C@@H](Cc1c[nH]cn1)C(=O)N[C@H](C(=O)NCC(=O)O)CSSC[C@H](NC(=O)[C@@H]1CCCN1)C(=O)N[C@@H](CCC(=O)O)C(=O)N2 [5ji4_A7] (H-PCECTILRGWHFLTSSAECERLCDRLGLRTCRVHCG-OH; disulfide 2-35, 4-19, 23-31)",ELISA s/n,[1],5.8
same,ELISA signal,[1],3.36
same,inhibition of HtrA1 activity,[2]; maximal inhibition in the concentration-response,complete inhibition
"P C E C EDTTFFIIFNSSEE C ERL C RKLGVTN C RVH C G (bicyclic or more) [5ji4-CD28-4, 5JI4 library hit for CD28, synthesized and folded in vitro]",SPR Kd,[3],N.B.
"PCECDVHGETYTVSSSEEGTSVPTWLISLCRVHCG [CD8αβ-1 clone 2, phage clone, 5JI4 library, CD8αβ-1 panning]",S/N,[4]; [9],34.8
same,ELISA,[4]; [9],3.031
"PCECDVNGETYTVSSSEECERLCRKLGVTNCRVHCG (also: bicyclic or more (positions not given here)) [5ji4, reference compound]",ELISA s/n,[1],1.4
same,ELISA signal,[1],0.83
same,IC50,"[2]; 1 nM HtrA1, 5 μM H2-OPT substrate, 0.1% DMSO, 15 min pre-incubation, 37°C, pH 8.0, 4 parameter fit",not inhibitory
"PCECDYPVYHDDYKSSEECERLCRKLGVTNCRVHCG [CD8αβ-2 clone 1, phage clone, 5JI4 library, CD8αβ-2 panning]",S/N,[4]; [10],27.2
same,ELISA,[4]; [10],3.534
"PCECGPYHDDMDKTSSEECERLCRKLGVTNCRVHCG [CD8αβ-2 clone 2, phage clone, 5JI4 library, CD8αβ-2 panning]",S/N,[4]; [10],2.4
same,ELISA,[4]; [10],0.296
"PCECLMIAVMLVRPSSEECERLCRKLGVTNCRVHCG [CD8αβ-2 clone 3, phage clone, 5JI4 library, CD8αβ-2 panning]",S/N,[4]; [10],1.6
same,ELISA,[4]; [10],0.223
"PSECPNPPFEVRTWSSEECERLCRKLGVTNCVCG [CD8αβ-1 clone 1, phage clone, 5JI4 library, CD8αβ-1 panning]",S/N,[4]; [9],18.5
same,ELISA,[4]; [9],1.938
"PCECVWESFAHLPWSSEECERLCLNWLSSLCRVHCG (clone from the 5JI4 scaffold phage libraries, picked by NGS ranking; free N- and C-termini; three disulfide bonds; source: synthetic peptide (CSBio), folded in vitro, HPLC purified) [5ji4-CD8-21]",Kd,[5],6 ± 2.2 µM
"PCECLVTPYKDDYKSSEECERLCVWWLSTVCRVPCG (clone from the 5JI4 scaffold phage libraries, picked by NGS ranking; free N- and C-termini; three disulfide bonds; source: synthetic peptide (CSBio), folded in vitro, HPLC purified) [5ji4-CD8-22]",Kd,[6],76.3 ± 35.7 µM
"PCECDVNGETYTVSSSEECERLCVWWLSTVCRVPCG (clone from the 5JI4 scaffold phage libraries, picked by NGS ranking; free N- and C-termini; three disulfide bonds; source: synthetic peptide (CSBio), folded in vitro, HPLC purified) [5ji4-CD8-20]",Kd,[6],23 ± 7 µM
"H-PCECVWESFAHLPWSSEECERLCRKLGVTNCVCG-OH (disulfide (positions not given here); also: three disulfide bonds, pairing not given here) [5ji4-CD8-2]",Kd,[5],4.2 ± 4.3 µM
PCECFMYDILVGLASSEECERLCRKLGVTNCRVHCG [5ji4-VEGF-2 displayed on M13 phage],phage spot ELISA signal,[7],4.71
same,phage spot ELISA signal/noise (s/n),[7],44.5
PCECFMYDILVGLASSEECERLCRKLGVTNCRVHCG [5ji4-VEGF-2],Kd,[8],6.8 µM
PCECDVNVETYTVSSSEECKRLCWGFGQSDCRVHCG [5ji4-VEGF-3 displayed on M13 phage],phage spot ELISA signal,[7],3.07
same,phage spot ELISA signal/noise (s/n),[7],32.2
PCECDVNVETYTVSSSEECKRLCWGFGQSDCRVHCG [5ji4-VEGF-3],Kd,[8],0.12 µM
